The values below come from patent US20210070748A1, “INHIBITORS OF BRUTONS TYROSINE KINASE” (Pharmacyclics LLC, priority 2015, published 2021).

A word on the IC50: it is the concentration that gives 50% inhibition.

Type in all cases: biochemical
One experiment has as its target T1, BTK-WT (Homo sapiens, UniProt Q06187).
T1 construct: purified from insect cells as a full-length construct containing an N-terminal 6X-His tag; His6 (N); made in house; host or cells: insect cells (baculovirus Sf21 in Method B)
Description: Btk in vitro inhibitory activity (one of Method A TR-FRET, Method B electrophoretic mobility shift, Method C radiometric filter binding). To be noted: D-compounds panel data; read-out: IC50 BTK-WT. On the technique in general: In EMSA bound probe runs differently from free probe, usually more slowly.

Another experiment concerns the target SRC (Homo sapiens, UniProt P12931). Nature of the experiment: Inhibition of a panel of kinases, in vitro HotSpot kinase assay: SRC. To be noted: D-compounds panel data; 1 μM ATP. How it is done: (§1) The degree of inhibition of a panel of kinases is determined using the in vitro HotSpot kinase assay (purified enzymes, ^33P-ATP, an appropriate substrate and 1 μM ATP).

Another experiment concerns the target T2, TEC (Homo sapiens, UniProt P42680).
T2 sequence (P42680 1-631): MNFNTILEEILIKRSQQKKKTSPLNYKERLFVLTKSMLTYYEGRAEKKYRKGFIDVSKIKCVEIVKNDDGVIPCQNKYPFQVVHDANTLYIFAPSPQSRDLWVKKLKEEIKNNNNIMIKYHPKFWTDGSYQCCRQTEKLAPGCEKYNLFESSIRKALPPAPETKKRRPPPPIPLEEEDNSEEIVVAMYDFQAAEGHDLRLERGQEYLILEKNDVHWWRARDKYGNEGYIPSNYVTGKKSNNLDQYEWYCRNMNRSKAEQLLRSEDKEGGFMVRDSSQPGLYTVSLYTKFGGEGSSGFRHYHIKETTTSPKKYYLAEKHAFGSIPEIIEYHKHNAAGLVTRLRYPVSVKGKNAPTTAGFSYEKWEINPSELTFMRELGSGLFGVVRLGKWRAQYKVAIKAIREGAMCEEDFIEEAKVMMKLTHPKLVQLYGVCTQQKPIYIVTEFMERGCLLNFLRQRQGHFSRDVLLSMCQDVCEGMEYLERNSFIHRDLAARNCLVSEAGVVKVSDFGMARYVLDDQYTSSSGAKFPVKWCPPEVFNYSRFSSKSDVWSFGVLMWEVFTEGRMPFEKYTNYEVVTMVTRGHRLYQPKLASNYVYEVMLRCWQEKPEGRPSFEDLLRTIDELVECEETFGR
Nature of the experiment: Inhibition of a panel of kinases, in vitro HotSpot kinase assay: TEC. Conditions: D-compounds panel data; 1 μM ATP. How it is done:
as §1

Bounds are passed on as bounds.

T1 sequence (Q06187 whole entry): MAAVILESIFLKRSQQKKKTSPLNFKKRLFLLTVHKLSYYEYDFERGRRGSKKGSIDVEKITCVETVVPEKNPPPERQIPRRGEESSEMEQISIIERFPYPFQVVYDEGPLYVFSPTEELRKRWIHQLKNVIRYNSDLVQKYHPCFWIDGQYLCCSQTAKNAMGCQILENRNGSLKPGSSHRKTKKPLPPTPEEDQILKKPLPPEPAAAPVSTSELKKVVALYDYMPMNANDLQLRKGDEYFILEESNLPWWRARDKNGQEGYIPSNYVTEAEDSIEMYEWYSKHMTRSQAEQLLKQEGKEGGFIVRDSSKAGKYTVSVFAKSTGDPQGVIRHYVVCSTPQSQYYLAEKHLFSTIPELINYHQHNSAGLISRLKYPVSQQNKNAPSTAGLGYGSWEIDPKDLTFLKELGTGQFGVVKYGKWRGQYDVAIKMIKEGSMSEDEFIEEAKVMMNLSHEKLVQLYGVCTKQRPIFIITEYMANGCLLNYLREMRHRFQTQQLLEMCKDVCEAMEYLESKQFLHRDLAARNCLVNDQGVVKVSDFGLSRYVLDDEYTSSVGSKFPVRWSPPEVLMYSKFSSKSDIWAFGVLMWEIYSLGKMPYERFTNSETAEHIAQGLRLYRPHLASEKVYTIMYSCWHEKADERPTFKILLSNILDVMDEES
Sequence of SRC (P12931 whole entry): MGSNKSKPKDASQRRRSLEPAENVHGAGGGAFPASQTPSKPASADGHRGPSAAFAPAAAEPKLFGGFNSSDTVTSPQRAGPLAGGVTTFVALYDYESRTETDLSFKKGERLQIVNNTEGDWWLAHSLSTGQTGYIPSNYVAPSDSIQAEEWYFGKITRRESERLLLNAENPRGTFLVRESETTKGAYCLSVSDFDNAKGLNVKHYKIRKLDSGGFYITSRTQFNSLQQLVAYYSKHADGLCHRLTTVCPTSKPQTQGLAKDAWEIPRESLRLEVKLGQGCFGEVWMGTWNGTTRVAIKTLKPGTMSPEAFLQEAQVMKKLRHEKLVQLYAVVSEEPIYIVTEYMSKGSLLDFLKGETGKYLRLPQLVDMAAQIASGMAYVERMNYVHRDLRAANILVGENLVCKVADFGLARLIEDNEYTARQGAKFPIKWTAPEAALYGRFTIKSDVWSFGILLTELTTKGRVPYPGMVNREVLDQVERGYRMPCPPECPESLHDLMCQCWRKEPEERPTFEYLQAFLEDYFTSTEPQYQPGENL

Turning to `C[C@@H]1[C@H](NC(=O)c2ccc(C3CC3)cc2)CCCN1c1cnc(C(N)=O)c(Nc2cnc(N3CCN(C)CC3)nc2)n1` [Example D-318, 5-[(2R,3R)-3-(4-cyclopropylbenzamido)-2-methylpiperidin-1-yl]-3-{[2-(4-methylpiperazin-1-yl)pyrimidin-5-yl]amino}pyrazine-2-carboxamide], the values for the IC50 at BTK-WT, on SRC and against TEC were at most 10 nM, 100 to 1000 nM and 10 to 100 nM, respectively.

For `Cc1ncc(Nc2nc(N3CCC[C@@H](NC(=O)c4ccc(C5CC5)cc4F)C3)cnc2C(N)=O)s1` [Example D-4, 5-[(3R)-3-(4-cyclopropyl-2-fluorobenzamido)piperidin-1-yl]-3-[(2-methyl-1,3-thiazol-5-yl)amino]pyrazine-2-carboxamide], the IC50 is 10 to 100 nM at BTK-WT, over 10000 nM against SRC and 100 to 1000 nM at TEC.

With `Cn1cc(Nc2nc(N3CCC[C@@H](NC(=O)c4ccc(C(C)(C)O)cc4)C3)nnc2C(N)=O)cn1` [Example D-39, 3-[(3R)-3-[4-(2-hydroxypropan-2-yl)benzamido]piperidin-1-yl]-5-[(1-methyl-1H-pyrazol-4-yl)amino]-1,2,4-triazine-6-carboxamide], the IC50 on BTK-WT was at most 10 nM; at SRC it was 100 to 1000 nM; against TEC it was 10 to 100 nM.

For the molecule `C[C@@H]1[C@H](NC(=O)c2ccc(-c3ncccn3)cc2)CCCN1c1cnc(C(N)=O)c(Nc2cnn(C)c2)n1` [Example D-85, 3-[(1-methyl-1H-pyrazol-4-yl)amino]-5-[(2R,3R)-2-methyl-3-[4-(pyrimidin-2-yl)benzamido]piperidin-1-yl]pyrazine-2-carboxamide], the IC50 at BTK-WT was at most 10 nM; against SRC, 100 to 1000 nM; against TEC it was at most 10 nM.

On to `C[C@@H]1[C@H](NC(=O)c2ccc(C3CC3)cc2)CCCN1c1cnc(C(N)=O)c(Nc2ccc(C3CCOCC3)cc2)n1` [Example D-317, 5-[(2R,3R)-3-(4-cyclopropylbenzamido)-2-methylpiperidin-1-yl]-3-{[4-(oxan-4-yl)phenyl]amino}pyrazine-2-carboxamide], for which the IC50 at BTK-WT was at most 10 nM; against SRC, over 10000 nM; against TEC, 10 to 100 nM.

Take `C[C@@H]1[C@H](NC(=O)c2ccc(C(C)(C)CO)cc2)CCCN1c1cnc(C(N)=O)c(Nc2cnn(C)c2)n1` [Example D-94, 5-[(2R,3R)-3-[4-(1-hydroxy-2-methylpropan-2-yl)benzamido]-2-methylpiperidin-1-yl]-3-[(1-methyl-1H-pyrazol-4-yl)amino]pyrazine-2-carboxamide]: the values for the IC50 on BTK-WT, at SRC and against TEC were at most 10 nM, 10 to 100 nM and 10 to 100 nM, respectively.

As to `C[C@@H]1[C@H](NC(=O)c2ccc(C3CC3)cc2)CCCN1c1cnc(C(N)=O)c(Nc2ccc(OC3CCN(C)CC3)cc2)n1` [Example D-89], the IC50 on BTK-WT is at most 10 nM; against SRC it was 10 to 100 nM; at TEC, 10 to 100 nM.

As to `C[C@@H]1[C@H](NC(=O)c2ccc(C(C)(C)N)cc2)CCCN1c1cnc(C(N)=O)c(Nc2cnn(C)c2)n1` [Example D-51, 5-[(2R,3R)-3-[4-(2-aminopropan-2-yl)benzamido]-2-methylpiperidin-1-yl]-3-[(1-methyl-1H-pyrazol-4-yl)amino]pyrazine-2-carboxamide], the IC50 on BTK-WT, against SRC and at TEC was at most 10 nM throughout.

On to `Cn1cc(Nc2nc(N3CCC(NC(=O)c4ccc(C5CC5)cc4)C(O)C3)cnc2C(N)=O)cn1` (single isomer, unassigned) [Example D-29, Trans-5-[4-(4-cyclopropylbenzamido)-3-hydroxypiperidin-1-yl]-3-[(1-methyl-1H-pyrazol-4-yl)amino]pyrazine-2-carboxamide], for which the IC50 lay within 100 to 1000 nM on BTK-WT, 1000 to 10000 nM at SRC and 1000 to 10000 nM on TEC.

As to `C[C@@H]1[C@H](NC(=O)c2ccc(C3CC3)cc2F)CCCN1c1cnc(C(N)=O)c(Nc2cnn(C)c2)n1` [Example D-1, 5-[(2R,3R)-3-(4-cyclopropyl-2-fluorobenzamido)-2-methylpiperidin-1-yl]-3-[(1-methyl-1H-pyrazol-4-yl)amino]pyrazine-2-carboxamide], the half-inhibitory concentration (IC50) at BTK-WT is at most 10 nM; against SRC, 100 to 1000 nM; against TEC, 10 to 100 nM.

Turning to `CN(C)C(=O)N[C@@H]1CCCN(c2cnc(C(N)=O)c(Nc3ccc(C4(C)CCN(C5CCCC5)CC4)cc3)n2)[C@H]1CO` [Example D-60, 3-{[4-(1-cyclopentyl-4-methylpiperidin-4-yl)phenyl]amino}-5-[(2R,3R)-3-[(dimethylcarbamoyl)amino]-2-(hydroxymethyl)piperidin-1-yl]pyrazine-2-carboxamide], the values for the IC50 at BTK-WT, at SRC and against TEC were 100 to 1000 nM, 100 to 1000 nM and 1000 to 10000 nM, respectively.

For the molecule `C[C@@H]1[C@H](NC(=O)c2ccc(C3CC3)cc2)CCCN1c1cnc(C(N)=O)c(Nc2cnn(CC3CCOCC3)c2)n1` [Example D-319, 5-[(2R,3R)-3-(4-cyclopropylbenzamido)-2-methylpiperidin-1-yl]-3-{[1-(oxan-4-ylmethyl)-1H-pyrazol-4-yl]amino}pyrazine-2-carboxamide], the figures for the IC50 at BTK-WT, against SRC and against TEC were at most 10 nM, 10 to 100 nM and at most 10 nM, respectively.

With `CN(C)C(=O)N[C@H]1CCCN(c2cnc(C(N)=O)c(Nc3ccc(C4(C)CCN(C5CCCC5)CC4)cc3)n2)[C@@H]1CO` [Example D-61, 3-{[4-(1-cyclopentyl-4-methylpiperidin-4-yl)phenyl]amino}-5-[(2S,3S)-3-[(dimethylcarbamoyl)amino]-2-(hydroxymethyl)piperidin-1-yl]pyrazine-2-carboxamide], the IC50 is 100 to 1000 nM at BTK-WT, 1000 to 10000 nM against SRC and over 10000 nM at TEC.

`C[C@@H]1[C@H](NC(=O)c2ccc(C(F)(F)F)cn2)CCCN1c1cnc(C(N)=O)c(Nc2cnn(C)c2)n1` [Example D-87, 3-[(1-methyl-1H-pyrazol-4-yl)amino]-5-[(2R,3R)-2-methyl-3-[5-(trifluoromethyl)pyridine-2-amido]piperidin-1-yl]pyrazine-2-carboxamide]: the results for the IC50 on BTK-WT, against SRC and at TEC were at most 10 nM, 10 to 100 nM and 10 to 100 nM, respectively.

As for `C[C@@H]1[C@H](NC(=O)N(C)C)CCCN1c1cnc(C(N)=O)c(Nc2cn[nH]c2)n1` [Example D-53, 5-[(2R,3R)-3-[(dimethylcarbamoyl)amino]-2-methylpiperidin-1-yl]-3-[(1H-pyrazol-4-yl)amino]pyrazine-2-carboxamide], the IC50 at BTK-WT was 10 to 100 nM; at SRC, 100 to 1000 nM; against TEC it was 10 to 100 nM.

In the case of `CN(C)C(=O)N[C@H]1CCCN(c2cnc(C(N)=O)c(Nc3ccc4ncccc4c3)n2)[C@@H]1CO` (racemic) [Example D-64, trans 5-[3-[(dimethylcarbamoyl)amino]-2-(hydroxymethyl)piperidin-1-yl]-3-[(quinolin-6-yl)amino]pyrazine-2-carboxamide], the values for the IC50 on BTK-WT, against SRC and against TEC were 1000 to 10000 nM, over 10000 nM and 1000 to 10000 nM, respectively.

In the case of `Cn1cc(Nc2nc(N3CCC(NC(=O)c4ccc(C5CC5)cc4)C(O)C3)cnc2C(N)=O)cn1` (single isomer, unassigned) [Example D-28, Trans-5-[4-(4-cyclopropylbenzamido)-3-hydroxypiperidin-1-yl]-3-[(1-methyl-1H-pyrazol-4-yl)amino]pyrazine-2-carboxamide], the IC50 at BTK-WT was 1000 to 10000 nM; on SRC, 1000 to 10000 nM; at TEC it was over 10000 nM.

As for `Cc1cc(Nc2nc(N3CCC[C@H](NC(=O)N(C)C)[C@@H]3CO)cnc2C(N)=O)sn1` [Example D-68, 5-[(2R,3S)-3-[(dimethylcarbamoyl)amino]-2-(hydroxymethyl)piperidin-1-yl]-3-[(3-methyl-1,2-thiazol-5-yl)amino]pyrazine-2-carboxamide], the IC50 at BTK-WT is 1000 to 10000 nM; at SRC, 1000 to 10000 nM; at TEC, over 10000 nM.

Take `CC1COc2cc(C(=O)N[C@@H]3CCCN(c4cnc(C(N)=O)c(Nc5cnn(C)c5)n4)[C@@H]3C)ccc2C1` (stereo partly drawn) [Example D-56, 3-[(1-methyl-1H-pyrazol-4-yl)amino]-5-[(2R,3R)-2-methyl-3-(3-methyl-3,4-dihydro-2H-1-benzopyran-7-amido)piperidin-1-yl]pyrazine-2-carboxamide]: the concentration for half-maximal inhibition (IC50) at BTK-WT is at most 10 nM; against SRC, 10 to 100 nM; at TEC it was at most 10 nM.

Turning to `C[C@@H]1[C@H](N2CCN(C)C2=O)CCCN1c1cnc(C(N)=O)c(Nc2ccc(C3(C)CCN(C4CC4)CC3)cc2)n1` [Example D-38, 3-{[4-(1-cyclopropyl-4-methylpiperidin-4-yl)phenyl]amino}-5-[(2R,3R)-2-methyl-3-(3-methyl-2-oxoimidazolidin-1-yl)piperidin-1-yl]pyrazine-2-carboxamide], the IC50 on BTK-WT was at most 10 nM; on SRC, 10 to 100 nM; against TEC, 10 to 100 nM.
